The values that follow come from patent US20220048945A1, “PEPTIDE INHIBITING ACTIVITY OF ARYL HYDROCARBON RECEPTOR AND COSMETIC COMPOSITION USING SAME” (SUPADELIXIR INC., priority 2019, published 2022).

Test [1] relates to TNF-α. Description: ELISA, TNF-α production caused by fine dust. Particulars: HaCaT cells, fine dust 10 ug/ml plus peptide 20 uM, 24 hours; fine dust only = 100, no treatment = 0. It is filed as cell-based, human. How it is done:
(§1) 2. Specifically, the cultured HaCaT cells were treated with 10 ug/ml of fine dust and 20 uM of the peptide produced in Example 1 (AhR Pep1 to AhR Pep4) respectively, and incubated for 24 hours. Then, IL-6 and TNF-α contents were measured using a […] enzyme-linked immunosorbent assay (ELISA) kit (R&D Systems Inc, Minneapolis, Minn., USA).
A general note: In an ELISA, binding on a coated surface is turned into a signal by an enzyme label.

For test [2], the system named is IL-6. The test is described as follows: ELISA, IL-6 production caused by fine dust. It counts as cell-based, human. Particulars: HaCaT cells, fine dust 10 ug/ml plus peptide 20 uM, 24 hours; fine dust only = 100, no treatment = 0. How it is done: as §1

Take “Asp-Arg-Leu (DRL; Peptide 2) [AhR Pep 2]”: in test [1], the “TNF-α production (%)” value was determined as 93%. Moreover, the “IL-6 production (%)” value in test [2] worked out at 87%.
With “Asp-Arg-Leu-Asn (DRLN; Peptide 1) [AhR Pep 1]”, in test [1], the “TNF-α production (%)” value came out at 79%. Further, the “IL-6 production (%)” value in test [2] was 76%.
Consider “Asn-Thr-Glu-Leu (NTEL; Peptide 3) [AhR Pep 3]”, for which the “TNF-α production (%)” value in test [1] came out at 89%. For the same substance, in test [2], the “IL-6 production (%)” value is given as 83%.
The like results for “Asn-Thr-Glu (NTE; Peptide 4) [AhR Pep 4]” were, in that order, 82% and 74%.
